Counter-ions that a name gives are not always drawn.

Test [1] has as its system platelet aggregation induced by PAF in rabbit platelets. Put plainly: Inhibition of platelet aggregation induced by PAF (Test 1). The format is cell-based, male New Zealand albino rabbits. To be noted: concentration needed to inhibit platelet aggregation by 50%, PAF 16 nM final, rabbit platelet rich plasma. How it is done: Test 1: Inhibition of Platelet Aggregation Induced by PAF.
The blood is obtained by cardiac puncture of male New Zealand albino rabbits (between 2 and 2.5 Kg of weight) and coagulation is prevented by adding 1 part of 3.16% sodium citrate dihydrate in 9 parts of blood. The platelet rich plasma (PRP) is prepared by blood centrifugation at 250 xg for 10 min. at 4° C. and it is diluted with platelet poor plasma (PPP) obtained by additional centrifugation at […] for 10 min. The amount of platelets is adjusted to […]. The platelet aggregation induced by PAF (C18, prepared in our laboratory) (16 nM, final) is determined by the Born nephelometric technique (J. Physiol., 1962, 162, 67) using a aggregometer Chronolog 500. The activities of the inhibitors are expressed as IC50, that is to say the concentration of the drug needed to inhibit the platelet aggregation in a 50%.

In test [2] the test system is hypotension induced by PAF. Kind of test: Inhibition of the hypotensive effect induced by PAF in normotense rats (Test 2). Format: in vivo, Male Sprague Dawley rats. To be noted: i.v., 3 min before PAF (0.5 mg/Kg, i.v.), anesthetized rats. How it is done: Test 2--Inhibition of the Hypotensive Effect Induced by PAF in normotense Rats.
(§1) Male Sprague Dawley rats, of 180-220 g of weight, anesthetized with sodium pentobarbital (50 mg/Kg, i.p. 1 mL/100 g) have been used. In order to measure the average arterial pressure, a polyethylene catheter is introduced into the carotide artery. The arterial pressure is recorded with the help of a transducer connected with a R611 Beckman polygraph. The tested compounds are administrated through the femoral vein 3 min. Before the injection of PAF (0.5 mg/Kg, i.v.).

Test [3] concerns hypotension induced by PAF. Put plainly: Reversion of the hypotensive effect induced by PAF in normotense rats (Test 3). To be noted: Rattus norvegicus, iv, 1 min; i.v., 1 min after the injection of PAF; read-out: ID50, dose required to reduce in a 50% the time of recovery of the basal blood pressure. The format is in vivo, Male Sprague Dawley rats. How it is done:
as §1
Test 3--Reversion of the Hypotensive Effect Induced by PAF in Normotense Rats
The experimental design is similar to that of test 2, except in that the compound to be tested is given by intravenous injection 1 min. After the injection of PAF. In the controls the blood pressure recovers 80% of the basal level 6.2 min. after the injection of PAF. The effect of the tested compounds is expressed as the dose required to reduce in a 50% the time of recovery of the basal blood pressure (ID50).

Where [4] appears, read: Oryctolagus cuniculus, Platelet.

`CCCCCCCCCCCCCCCCCC1OCC(COCCCC[n+]2ccccc2)O1` (racemic) [Compound 1, (±)-cis, trans-1[4-[(2-heptadecyl-1,3-dioxolane-4-yl)methoxy]butyl]piridinium 4-methylbenzenesulphonate]: the midpoint of inhibition in test [1] (setting [4]), the IC50, lay at 5.5 µM. Besides, in test [2] (compound 5 mg/Kg), the “% Inhibition of the hypotension induced by PAF” value (“% Inhibition” for short) stood at 24%.

Consider `CCCCCCCCCCCCCCCCCC1OCC(COCCCC[n+]2ccsc2)O1` (racemic) [Compound 2, (±)-cis, trans-3-[4-[(2-heptadecyl-1,3-dioxolane-4-yl)methoxy]butyl]thiazolium 4-methylbenzenesulfonate], for which the IC50 in test [1] (setting [4]) was determined as 6 µM. `CCCCCCCCCCCCCCCCCC1OCC(COCCCC[n+]2ccsc2)O1` (racemic) [Compound 5, (±)-cis, trans-3-[4-[(2-heptadecyl-1,3-dioxolane-4-yl)methoxy]butyl)thiazolium iodide] gave an IC50 in test [1] of 5 µM.

On to `CCCCCCCCCCCCCCCCCC1OCC(COCCCCCC[n+]2ccccc2)O1` (racemic) [Compound 6, (±)-cis, trans-1-[6-[(2-heptadecyl-1,3-dioxolane-4-yl)methoxy]hexyl]pyridinium 4-methylbenzenesulfonate], for which, in test [1] (setting [4]), the IC50 turned out to be 3.3 µM. For the same compound, the “% Inhibition” value in test [2] (compound 5 mg/Kg) is 42%. Take `CCCCCCCCCCCCCCCCCC1OCC(COCCCCCC[n+]2cscc2C)O1` (racemic) [Compound 7, (±)-cis, trans-3-[6-[(2-heptadecyl-1,3-dioxolane-4-yl)methoxy]hexyl]-4-methylthiazolium 4-methylbenzenesulfonate]: the IC50 in test [1] (setting [4]) turned out to be 3.1 µM. Regarding `CCCCCCCCCCCCCCCCCC1OCC(COCCCCCC[n+]2ccsc2)O1` (racemic) [Compound 8, (±)-cis, trans-3-[6-[(2-heptadecyl-1,3-dioxolane-4-yl)methoxy]hexyl]thiazolium 4-methylbenzenesulfonate], the ED50 in test [3] was 0.3 mg/kg. This compound yielded an IC50 in test [1] (setting [4]) of 1.4 µM. The “% Inhibition” value in test [2] (compound 1.25 mg/Kg) came to 46%; in test [2] (compound 2.5 mg/Kg) it was 75%; in test [2] (compound 5 mg/Kg) it was 88%. With `CCCCCCCCCCCCCCCCCC1OCC(COCCCCCC[N+]2(C)CCOCC2)O1` (racemic) [Compound 9, (±)-cis, trans-4-[6-[(2-heptadecyl-1,3-dioxolane-4-yl)methoxy]hexyl]-4-methylmorpholinium 4-methylbenzenesulfonate], half-maximal inhibition in test [1] (setting [4]) (IC50) required 18 µM. Still for that read-out and setting: the same measure for `CCCCCCCCCCCCCCCCCC1OCC(COCCCCCC[N+](C)(C)C)O1` (racemic) [Compound 10, (±)-cis, trans-6-[(2-heptadecyl-1,3-dioxolane-4-yl)methoxy]-N,N,N-trimethyl-1-hexanaminium 4-methylbenzenesulfonate]: 5.5 µM; for `CCCCCCCCCCCCCCCCCC1OCC(COCCCCCC[n+]2cccc3ccccc32)O1` (racemic) [Compound 11, (±)-cis, trans-1-[6-(2-heptadecyl-1,3-dioxolane-4-yl)methoxy]hexyl]quinolinium 4-methylbenzenesulfonate]: 3.9 µM. Still for that read-out and setting: the same measure for `CCCCCCCCCCCCCCCCCC1OCC(COCCCCCC[n+]2csc3ccccc32)O1` (racemic) [Compound 12, (±)-cis, trans-3-[6-[(2-heptadecyl-1,3-dioxolane-4-yl)methoxy]hexyl]benzothiazolium4-methylbenzenesulfonate]: 16 µM; for `CCCCCCCCCCCCCCCCCC1OCC(COCCCCCCCC[n+]2ccccc2)O1` (racemic) [Compound 20, (±)-cis, trans-1-[8-[(2-heptadecyl-1,3-dioxolane-4-yl)methoxy]octyl]pyridinium 4-methylbenzenesulfonate]: 14 µM; for `CCCCCCCCCCCCCCCCCC1OCC(COCCCCCCCC[n+]2ccsc2)O1` (racemic) [Compound 22, (±)-cis, trans-3-[8-[(2-heptadecyl-1,3-dioxolane-4-yl)methoxy]octyl]thiazolium 4-methylbenzenesulfonate]: 5.1 µM. For the compound `CCCCCCCCCCCCCCCCCC1OCC(COC(=O)CCCCC[n+]2ccccc2)O1` (racemic) [Compound 24, (±)-cis, trans-1-[6-[(2-heptadecyl-1,3-dioxolane-4-yl)methoxy]-6-oxohexyl]pyridinium 4-methylbenzenesulfonate], in test [1] (setting [4]), the IC50 was 2.6 µM. For the same compound, the entries for the “% Inhibition” value in test [2] (compound 2.5 mg/Kg) and in test [2] (compound 5 mg/Kg) were 58% and 72%, respectively. As to `CCCCCCCCCCCCCCCCCC1OCC(COC(=O)CCCCC[n+]2cscc2C)O1` (racemic) [Compound 26, (±)-cis, trans-3-[6-[(2-heptadecyl-1,3-dioxolane-4-yl)methoxy]-6-oxohexyl]-4-methylthiazolium 4-methylbenzenesulfonate], the IC50 in test [1] (setting [4]) was 2.5 µM.

Regarding `CCCCCCCCCCCCCCCCCC1OCC(COC(=O)CCCCC[n+]2ccsc2)O1` (racemic) [Compound 27, (±)-cis, trans-3-[6-[(2-heptadecyl-1,3-dioxolane-4-yl)methoxy]-6-oxohexyl]thiazolium 4-methylbenzenesulfonate], the ED50 in test [3] is 0.16 mg/kg. This compound also registered an IC50 in test [1] (setting [4]) of 1.3 µM. The “% Inhibition” value in test [2] (compound 0.63 mg/Kg) turned out to be 28%; in test [2] (compound 1.25 mg/Kg), 75%; in test [2] (compound 5 mg/Kg), 100%. For the compound `CCCCCCCCCCCCCCCCCC1OCC(COC(=O)CCCCC[N+]2(C)CCOCC2)O1` (racemic) [Compound 30, (±)-cis, trans-4-[6-[(2-heptadecyl-1,3-dioxolane-4-yl)methoxy]-6-oxohexyl]-4-methylmorpholinium 4-methylbenzenesulfonate], half-maximal inhibition in test [1] (setting [4]) (IC50) was put at 21 µM. Still for that read-out and setting: the same measure for `CCCCCCCCCCCCCCCCCC1OCC(COC(=O)CCCCC[N+](C)(C)C)O1` (racemic) [Compound 31, (±)-cis, trans-6-[(2-heptadecyl-1,3-dioxolane-4-yl)methoxy]-6-oxo-N,N,N-trimethyl-1-hexanaminium 4-methylbenzenesulfonate]: 7.8 µM. In test [1] (setting [4]), `CCCCCCCCCCCCCCCCCC1OCC(COC(=O)CCCCC[n+]2cccc3ccccc32)O1` (racemic) [Compound 32, (±)-cis, trans-1-[6-[(2-heptadecyl-1,3-dioxolane-4-yl)methoxy]-6-oxohexyl]quinolinium 4-methylbenzenesulfonate] gave an IC50 of 2.5 µM. In addition, the “% Inhibition” value in test [2] (compound 5 mg/Kg) turned out to be 80%. Take `CCCCCCCCCCCCCCCCCC1OCC(COP(=O)([O-])OCC[N+](C)(C)C)O1` (racemic) [Compound 47, (±)-cis, trans-2-[[[(2-heptadecyl-1,3-dioxolane-4-yl)methoxy]hydroxyphosphinyl]oxy]-N,N,N-trimethylethanaminium hydroxide, inner salt]: half-maximal inhibition in test [1] (setting [4]) (IC50) was put at 180 µM.

In turn, `CCCCCCCCCCCCCCCCCC1OCC(COP(=O)([O-])OCC[n+]2ccccc2)O1` (racemic) [Compound 48, (±)-cis, trans-1-[2-[[[(2-heptadecyl-1,3-dioxolane-4yl)methoxy]hydroxyphosphinyl]oxy]ethyl]pyridinium hydroxide, inner salt] displayed an IC50 in test [1] (setting [4]) of 180 µM.
